Values joined by “and” are separate entries in the source; they are usually repeats but may differ in a detail not shown here. Identical values can stand only once.
Tests used:
[1] = system: Pseudomonas aeruginosa; assay: MIC assay (microdilution); format: cell-based
[2] = system: Streptococcus pyogenes; assay: MIC assay (microdilution); format: cell-based; settings: lactate solutions, nanocrystalline silver = range for 12 samples
[3] = system: Streptococcus pneumoniae; assay: MIC assay (microdilution); format: cell-based; settings: lactate solutions, nanocrystalline silver = range for 12 samples
[4] = system: E. coli; assay: Minimal bactericidal concentration (MBC) assay; format: cell-based, Escherichia coli
Protocol: (§1) Minimal bactericidal concentration (MBC) assay—Overnight-grown MIC plates, prepared as described in Example 16, were evaluated to determine the MIC. Culture was then sampled from wells at and near the MIC using sterile inoculating loops, and transferred to fresh MHA plates to determine if viable bacteria remained. […] The MBC was determined as the well in the MIC plate which contained the lowest concentration of silver yielding no bacterial growth on the MHA plate.

[5] = system: Staph. aureus; assay: Minimal bactericidal concentration (MBC) assay; format: cell-based, Staphylococcus aureus
Protocol: as §1

[6] = system: K. pneumoniae; assay: Minimal bactericidal concentration (MBC) assay; format: cell-based, Klebsiella pneumoniae; settings: K. pneumoniae NP403 (listed twice)
Protocol: as §1

[7] = system: Staphylococcus aureus; assay: MIC assay (microdilution); format: cell-based
[8] = system: Klebsiella pneumoniae; assay: MIC assay (microdilution); format: cell-based; settings: K. pneumoniae NP403 (listed twice)
[9] = system: Shigella flexneri; assay: MIC assay (microdilution); format: cell-based; settings: Shigella flexneri ATCC 12022
[10] = system: Ps. aeruginosa; assay: Minimal bactericidal concentration (MBC) assay; format: cell-based, Pseudomonas aeruginosa; settings: Ps. aeruginosa 27317 (ATCC type strain)
Protocol: as §1

[11] = system: Ser. marcescens; assay: Minimal bactericidal concentration (MBC) assay; format: cell-based, Serratia marcescens
Protocol: as §1

[12] = system: Staphylococcus epidermidis; assay: MIC assay (microdilution); format: cell-based
[13] = system: Staph epidermidis; assay: Minimal bactericidal concentration (MBC) assay; format: cell-based, Staphylococcus epidermidis; settings: Staph epidermidis 12228 (ATCC type strain)
Protocol: as §1

[14] = system: Mycobacterium tuberculosis H37Ra (ATCC 25177); format: cell-based
[15] = system: Escherichia coli; assay: MIC assay (microdilution); format: cell-based
[16] = system: Serratia marcescens; assay: MIC assay (microdilution); format: cell-based
[17] = E. coli 8739 (ATCC type strain)
[18] = E. coli 43745 (ATCC type strain)
[19] = Staph. aureus 6538 (ATCC type strain)
[20] = Staph. aureus 700699 (ATCC type strain)
[21] = Ser. marcescens NP402 (listed twice)
[22] = Ser. marcescens NP408 (listed twice)

O=[N+]([O-])[O-].[Ag+] [AgNO3, silver nitrate]
MIC ([1]; P. aerug (ATCC), lactate solutions, nanocrystalline silver = range for 12 samples): 3 µg/mL
MIC ([1]; P. aerug. (clin.), lactate solutions, nanocrystalline silver = range for 12 samples): 3 µg/mL
MIC ([1]; P. aeruginosa isolate NP212, formulation type Lactate): 2 ppm
MIC ([1]; P. aeruginosa isolate NP212, formulation type Water/Lecithin): 3 ppm
MIC ([1]; P. aeruginosa isolate NP212, formulation type Water/PVA): 3 ppm
MIC ([1]; Ps. aeruginosa 9027 (ATCC type strain)): 1 parts silver per million
MIC ([1]; Ps. aeruginosa 27317 (ATCC type strain)): 2 parts silver per million
MIC ([2]; S. pyog (clin. 303)): 3 µg/mL
MIC ([2]; S. pyog (clin. 304)): 5 µg/mL
MIC ([3]; S. pneumo (clin 314)): 11 µg/mL
MIC ([3]; S. pneumo (clin 315)): 21 µg/mL
MBC [4, 17]: 0.4 parts silver per million
MBC [4, 18]: 0.4 parts silver per million
MBC [5, 19]: 6 parts silver per million
MBC [5, 20]: 6 parts silver per million
MBC [6]: 6 parts silver per million and 3 parts silver per million
MIC ([7]; S. aureus (ATCC), lactate solutions, nanocrystalline silver = range for 12 samples): 11 µg/mL
MIC ([7]; S. aureus (clin.), lactate solutions, nanocrystalline silver = range for 12 samples): 5 µg/mL
MIC [7, 19]: 6 parts silver per million
MIC [7, 20]: 3 parts silver per million
MIC [8]: 6 parts silver per million
MIC ([9]; formulation type Lactate): 2 ppm
MIC ([9]; formulation type Water/Lecithin): 2 ppm
MIC ([9]; formulation type Water/PVA): 1 ppm
MBC [10]: 3 parts silver per million
MBC [11, 21]: 6 parts silver per million
MBC [11, 22]: 6 parts silver per million and 11 parts silver per million
MIC ([12]; S. epiderm (ATCC), lactate solutions, nanocrystalline silver = range for 12 samples): 3 µg/mL
MIC ([12]; Staph epidermidis 12228 (ATCC type strain)): 3 parts silver per million
MBC [13]: 3 parts silver per million
minimum inhibitory concentration (MIC) [14]: 2.5 μg/ml silver
MIC [15, 17]: 0.4 parts silver per million
MIC [15, 18]: 1 parts silver per million
MIC ([15]; E. coli (ATCC), lactate solutions, nanocrystalline silver = range for 12 samples): 3 µg/mL
MIC [16, 21]: 6 parts silver per million
MIC [16, 22]: 6 parts silver per million and 11 parts silver per million
